Results on twelve compounds are retold here after patent US20090023801A1, “INHIBITORS OF BETA AMYLOID PRODUCTION” (Wyeth, priority 2007, published 2009).

Common to all, as to format: cell-based
Assay [1] has as its system Aβ42. The assay is described as follows: Aβ-lowering MSD electrochemiluminescent assay of conditioned media from CHO cells expressing human APP (Aβ42). The protocol: (§1) The activity of compounds in lowering the generation of Aβ40 and Aβ42, the most abundant forms of beta amyloid, from APP (amyloid precursor protein) was measured in an electrochemiluminescent (ECL) assay of conditioned media from chinese hamster ovary (CHO) cells stably expressing the human amyloid precursor protein (APP) reporter construct, hAPP-REPNL751 (Sughir, R. et al.; J. Biolog. Chem (1992) 267: 25602-25608). Aβ peptides were secreted at high levels into cell culture media by cells carrying the human APP transgene; compounds were tested for their capacity to modulate this production. The Aβ peptide in the conditioned medium was quantitated by a sandwich immunoassay with the MSD ECL detection system. Cell metabolism was measured using a 3-(4,5-dimethylthiazol-2-yl)-5-(3-carboxymethoxypheny)-2-(4-sulfophenyl)-2H-tetrazolium, inner salt (MTS) salt kit (which measures the mitochondrial activity of cells by the bioreduction of Owen's reagent). This assay consists of the following protocol:
(§2) 1. hAPP-REPNL751CHO cells were seeded into 96 well plates and incubated until about 60-70% confluence.
(§3) 2. Medium was removed, cells were washed, and fresh serum-free medium (Ultraculture) was put on cells.
(§4) 3. Compounds were diluted and then added to the cell medium.
(§5) 4. Cells were incubated, with compounds, for indicated times.
(§6) 5. Streptavidin coated Meso Scale Discover (MSD) plates (MSD standard MULTI-ARRAY® 96 plate, cat.# P11SA-1) were washed […] with TTBS (Tris-buffered saline, the TWEEN® 20 reagent).
(§7) 6. 20 μL conditioned medium were removed from the cells and added to the TTBS prewashed MSD plates.
(§8) 7. Standard curve dilutions of synthetic Aβ40 and Aβ42 were prepared and added to the MSD plates.
(§9) 8. A reagent mix was prepared in 1% MSD Blocker A (appropriate concentration of biotinylated 6E10 antibody, detection antibodies to Aβ40, Aβ42, and MSD ruthinylated tag antibody).
(§10) 9. 20 μL reagent mix was distributed to sample plate.
(§11) 10. Plates were incubated with shaking overnight at 4° C.
(§12) 11. Plates were washed 3× with TTBS.
(§13) 12. 150 μL read buffer was added per well (MSD® Read Buffer T, cat#R92TC-2, made 1× with distilled water).
(§14) 13. Plates were read in a MSD® plate reader within 2 hours.
(§15) Assays were accepted or rejected based upon specific performance criteria, including regression coefficient of standard curve, adequate signal to noise ratio, sample signals lying within the range of the standard curve, etc.: the specific parameters were established for each tissue type prior to performing an assay, and were included in the full analytical procedure.
(§16) Plate data from both assays (MTS and MSD® ELISA) were transferred into a Microsoft EXCEL® spreadsheet to determine the toxicity, and inhibition caused by the compounds. Standard curves of Aβ were generated using LSW™ toolbar Hill slope model 42, with 1/y weighting (general sigmoidal curve with Hill slope, a to d; y=(a−d)/(1+(x/c)̂b)+d). Inhibition data were expressed as a percent of the average of the Aβ values in the vehicle treated wells (all values are background subtracted), using LSW™ toolbar Hill Slope model 68 (ligand-receptor binding/sigmoidal, with Hill slope and Bmax to 0; y=Bmax*(1−(x̂n/(K̂n+x̂n))), after raw values were translated/transformed into absolute Aβ values utilizing the standard curve generated as described above (e.g. back calculate absolute Aβ values from the raw values utilizing standard curve). Onboard controls to verify assay performance were checked to assure that amyloid is within linear detection range of the assay, that cells were expressing correctly, and that the MSD itself was performing according to quality control (QC) standards.
(§17) % Inhibition>50% may be considered a positive response or an interesting result in this assay; EC50 determination were determined.
(§18) The beta amyloid inhibitory activity of compounds of formula (I) was determined using the MSD ECL assay. Inhibition of Notch processing was measured using the stable transfection reporter assay See, Table 1 below.

The test system of assay [2] is Aβ40. The assay is described as follows: Aβ-lowering MSD electrochemiluminescent assay of conditioned media from CHO cells expressing human APP (Aβ40). As for the experimental part: as §1, §2, §3, §4, §5, §6, §7, §8, §9, §10, §11, §12, §13, §14, §15, §16, §17, §18
Assay [3] deals with Notch. The assay is described as follows: Stable transfection Notch reporter assay (HES1-SEAP, P8H6 CHO-K1 cells). The conditions noted are these: CHO-K1.
Text: A concern with compounds that lower beta amyloid synthesis by targeting the γ-secretase enzyme is that this enzyme also is involved in the cleavage of other substrates besides APP especially the Notch substrate. […] Thus, a selectivity of APP cleavage over Notch cleavage is desired in order to avoid G.I. side effects. The activity of compounds in cleaving Notch can be measured in a whole cell functional Notch assay. This is an assay to determine the effects of compounds on the S3 (γ-secretase like) processing of Notch. […] SEAP transactivation is then detected by luminescent assay. The assay consists of the following protocol:
• (i) Materials: The P8H6 inducible stable cell line was derived from T-REX™ CHO-K1, stably expressing Tet repressor, Notch (pZX1) and HES1-SEAP (pZX2) reporter constructs. A Wallac 1450 Victor™ Luminescence Counter was used to measure luminescent signal. All other materials and reagents were of highest quality available and were all from commercial sources.
(ii) Construct Description: • pZX1: Mouse Notch1 with deleted extracellular domain cloned at Hind III/Xho I sites of pcDNA5/TO vector: Ampicillin Resistance for bacteria, hygromycin resistance for cells. • pZX2: Mouse HES1 promoter together with reporter gene SEAP cloned at Not I/Apa I sites of pcDNA3.1 with deletion of CMV promoter.
(iii) Procedure: • 1. P8H6 cells were grown in Ham's F12 complete growth media containing 10% FBS (reduced tetracycline), 2 mM of L-glutamine, 1 mg/mL of hygromycin, 1 mg/mL of the GENETICIN® antibiotic, 10 μg/mL of Blasticidin and 1% Penicillin-Streptomycin were supplemented with doxycline with final induction concentration of 0.2 μg/mL. The cells were seeded in 96-well tissue culture plate at 8000/well. • 2. Test compounds in 0.2% DMSO/25 mM HEPES buffer were diluted at final working concentration of 20 μM, 6.7 μM, 2.2 μM, 741 nM, 247 nM, 82 nM, 27 nM, 9 nM and 3 nM. Diluted compounds then were added to P8H6 cells in 96-well tissue culture plates. For vehicle samples, the same volume of 0.2% DMSO/25 mM HEPES buffer was added. • 3. Cells were incubated at 37° C., 5% CO2 for 48 hours. • 4. SEAP levels in the conditioned media were assessed using the Clontech GREATESCAPE™ SEAP Chemiluminescence detection kit according to the manufacturer's instruction. Briefly, 15 μL of conditioned media were mixed with 45 μL of the dilution buffer and incubated at 65° C. for 45 minutes. After cooling, assay buffer was added and the sample was incubated with the CSPD® substrate. • 5. Luminescence was measured in a Wallac 1450 VICTOR™ luminescence counter.
EC50 was the compound concentration that was estimated to provide a 50% reduction of maximum response in Notch induced SEAP levels. An EC50 from a given assay may only be used for averaging if it has met the following criteria: • 1. There is a lower dose in the assay which gives a % Notch Activity>60% (bracketing lower dose). • 2. There is a higher dose in the assay which gives a % Notch Activity<30% (bracketing higher dose), and the maximum inhibition is reached (e.g., a given compound might achieve 80% inhibition (% Notch activity is about 20%) over several doses, and therefore 20% would be considered the maximum inhibition.
Data were analyzed in Microsoft EXCEL® format. EC50 was calculated by LSW using sigmoidal inhibition from B0 to nsb model (model 59). Each assay plate contained a dose response curve for the reference compound 5-chloro-N-[(1S,2R)-2-ethyl-4,4,4-trifluoro-1-(hydroxymethyl)butyl]thiophene-2-sulfonamide. This compound is discussed in International Patent Publication No. WO 2004/092155. The following data is not shown in that publication.
as §18

[4] abbreviates: MSD electrochemiluminescent assay, hAPP-REPNL751 CHO cells, read-out: Aβ42 EC50 for inhibition of Aβ42.
Setting [5] is: MSD electrochemiluminescent assay, hAPP-REPNL751 CHO cells, read-out: Aβ40 EC50 for inhibition of Aβ40.
[6] abbreviates: stable transfection Notch reporter assay, 48 hours, read-out: Notch EC50 for inhibition of Notch.
Setting [7] is: Notch assay reference compounds, read-out: EC50 (Notch assay).
[8] abbreviates: CHO, beta amyloid assay reference compounds, read-out: EC50 Aβ42.
Setting [9] is: CHO, beta amyloid assay reference compounds, read-out: EC50 Aβ40.

Read-outs that look alike come from different tables or passages of the source.

On to `O=S(=O)(N[C@@H](CO)[C@@H](c1ccccc1)C(F)(F)F)c1ccc(Cl)s1` (stereo in doubt) [Example 2, 5-Chloro-N-[(1R* ,2R*)-3,3,3-trifluoro-1-(hydroxymethyl)-2-phenylpropyl]thiophene-2-sulfonamide], for which the concentration for a half-maximal effect (EC50) in assay [1] (setting [4]) and in assay [2] (setting [5]) was above 15000 nM in each case.

`O=S(=O)(N[C@H](CO)[C@H](c1ccc(Cl)cc1)C(F)(F)F)c1ccc(Cl)s1` (relative stereo) [Example 14, 5-Chloro-N-[(1S*,2S*)-2-(4-chlorophenyl)-3,3,3-trifluoro-1-(hydroxymethyl)propyl]thiophene-2-sulfonamide]: the EC50 (commonly the concentration needed to bring the measured effect to its halfway point) is above 20 µM in assay [3] (setting [6]), 2280 nM in assay [1] (setting [4]) and 2360 nM in assay [2] (setting [5]).

`O=S(=O)(N[C@H](CO)[C@H](c1ccc(F)cc1)C(F)(F)F)c1ccc(Cl)s1` (relative stereo) [Example 10, 5-Chloro-N-[(1S*,2S*)-3,3,3-trifluoro-2-(4-fluorophenyl)-1-(hydroxymethyl)propyl]thiophene-2-sulfonamide]: the figures for the EC50 in assay [3] (setting [6]), in assay [1] (setting [4]) and in assay [2] (setting [5]) were above 20 µM, 1570 nM and 1880 nM, respectively.

Consider `O=S(=O)(N[C@H](CO)[C@H](c1cccc(F)c1)C(F)(F)F)c1ccc(Cl)s1` (relative stereo) [Example 11, 5-Chloro-N-[(1S*,2S*)-3,3,3-trifluoro-2-(3-fluorophenyl)-1-(hydroxymethyl)propyl]thiophene-2-sulfonamide], for which the values for the EC50 in assay [3] (setting [6]), in assay [1] (setting [4]) and in assay [2] (setting [5]) were above 20 µM, 3380 nM and 4060 nM, respectively.

As to `CC[C@H](CC(F)(F)F)[C@@H](CO)NS(=O)(=O)c1ccc(Cl)s1` [5-chloro-N-[(1S,2R)-2-ethyl-4,4,4-trifluoro-1-(hydroxymethyl)butyl]thiophene-2-sulfonamide, reference compound], the results for the EC50 in assay [3] (setting [7]), in assay [1] (setting [8]) and in assay [2] (setting [9]) were 0.225 µM, 5 nM and 6 nM, respectively.

Consider `O=S(=O)(N[C@H](CO)[C@@H](c1ccccc1)C(F)(F)F)c1ccc(Cl)s1` [Example 4, 5-Chloro-N-[(1S,2R)-3,3,3-trifluoro-1-(hydroxymethyl)-2-phenylpropyl]thiophene-2-sulfonamide], for which the values for the EC50 in assay [3] (setting [6]), in assay [1] (setting [4]) and in assay [2] (setting [5]) were 3.75 µM, 197 nM and 238 nM, respectively.

Take `CC(C)[C@H](O)C(=O)N[C@@H](C)C(=O)N[C@@H]1C(=O)N(C)CCc2ccccc21` [(2S)-2-hydroxy-3-methyl-N-((1S)-1-methyl-2-{[(1S)-3-methyl-2-oxo-2,3,4,5-tetrahydro-1H-3-benzazepin-1-yl]amino}-2-oxoethyl)butanamide, reference compound]: the EC50 in assay [3] (setting [7]) was 0.068 µM; in assay [1] (setting [8]) it was 79 nM; in assay [2] (setting [9]) it was 109 nM.

Take `O=S(=O)(N[C@H](CO)[C@@H](c1ccc(F)cc1)C(F)(F)F)c1ccc(Cl)s1` (relative stereo) [Example 9, 5-Chloro-N-[(1S*,2R*)-3,3,3-trifluoro-2-(4-fluorophenyl)-1-(hydroxymethyl)propyl]thiophene-2-sulfonamide]: the results for the EC50 in assay [3] (setting [6]), in assay [1] (setting [4]) and in assay [2] (setting [5]) were above 20 µM, 178 nM and 187 nM, respectively.

Consider `O=S(=O)(N[C@H](CO)[C@@H](c1cc(F)cc(F)c1)C(F)(F)F)c1ccc(Cl)s1` (relative stereo) [Example 8, 5-Chloro-N-[(1S*,2R*)-2-(3,5-difluorophenyl)-3,3,3-trifluoro-1-(hydroxymethyl)propyl]thiophene-2-sulfonamide], for which the EC50 in assay [3] (setting [6]) turned out to be 2.78 µM; in assay [1] (setting [4]), 80 nM; in assay [2] (setting [5]) it was 83 nM.

`O=S(=O)(N[C@H](CO)[C@@H](c1ccc(Cl)cc1)C(F)(F)F)c1ccc(Cl)s1` (relative stereo) [Example 13, 5-Chloro-N-[(1S*,2R*)-2-(4-chlorophenyl)-3,3,3-trifluoro-1-(hydroxymethyl)propyl]thiophene-2-sulfonamide]: the EC50 in assay [3] (setting [6]) stood at 7.6 µM; in assay [1] (setting [4]), 396 nM; in assay [2] (setting [5]), 316 nM.

For `O=S(=O)(N[C@H](CO)[C@H](c1ccccc1)C(F)(F)F)c1ccc(Cl)s1` (stereo in doubt) [Example 5, 5-Chloro-N-[(1S*,2S*)-3,3,3-trifluoro-1-hydroxymethyl-2-phenylpropyl]thiophene-2-sulfonamide], the EC50 is above 20 µM in assay [3] (setting [6]), 7200 nM in assay [1] (setting [4]) and 7520 nM in assay [2] (setting [5]).

Consider `O=S(=O)(N[C@@H](CO)[C@H](c1ccccc1)C(F)(F)F)c1ccc(Cl)s1` [Example 3, 5-Chloro-N-[(1R,2S)-3,3,3-trifluoro-1-(hydroxymethyl)-2-phenylpropyl]thiophene-2-sulfonamide], for which the EC50 in assay [1] (setting [4]) and in assay [2] (setting [5]) was above 15000 nM throughout.
